In the test the target is T1, HPK1 (Homo sapiens, UniProt Q92918).
T1 construct: A HiBiT tag was introduced by CRISPR on the N terminus of HPK1 in Jurkat cells; host or cells: Jurkat cells (ATCC TIB-152), monoclonal line with CRISPR knock-in of HiBiT at the endogenous HPK1 locus
Kind of test: HPK1 Cellular HiBit Degradation Assay. The test is classed as cell-based. The conditions noted are these: HiBiT HPK1 Jurkat cells, 24 hrs; for DC50: concentration at which 50% of HPK1 was remaining, read-out: DC50 Category; for Dmax: Jurkat, maximum degradation vs DMSO vehicle control, read-out: Dmax Category. The procedure, abridged:
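HPK1 levels are read by HiBiT luminescence after 24 h exposure of HiBiT-knock-in Jurkat cells to compound at 10 uM–0.1 nM final (11 points). Relative to DMSO (100%), DC50 is the concentration leaving 50% HPK1 from a variable-slope fit, and Dmax is 100 minus minimum remaining. Viability checked in-plate.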

T1 sequence (Q92918 whole entry): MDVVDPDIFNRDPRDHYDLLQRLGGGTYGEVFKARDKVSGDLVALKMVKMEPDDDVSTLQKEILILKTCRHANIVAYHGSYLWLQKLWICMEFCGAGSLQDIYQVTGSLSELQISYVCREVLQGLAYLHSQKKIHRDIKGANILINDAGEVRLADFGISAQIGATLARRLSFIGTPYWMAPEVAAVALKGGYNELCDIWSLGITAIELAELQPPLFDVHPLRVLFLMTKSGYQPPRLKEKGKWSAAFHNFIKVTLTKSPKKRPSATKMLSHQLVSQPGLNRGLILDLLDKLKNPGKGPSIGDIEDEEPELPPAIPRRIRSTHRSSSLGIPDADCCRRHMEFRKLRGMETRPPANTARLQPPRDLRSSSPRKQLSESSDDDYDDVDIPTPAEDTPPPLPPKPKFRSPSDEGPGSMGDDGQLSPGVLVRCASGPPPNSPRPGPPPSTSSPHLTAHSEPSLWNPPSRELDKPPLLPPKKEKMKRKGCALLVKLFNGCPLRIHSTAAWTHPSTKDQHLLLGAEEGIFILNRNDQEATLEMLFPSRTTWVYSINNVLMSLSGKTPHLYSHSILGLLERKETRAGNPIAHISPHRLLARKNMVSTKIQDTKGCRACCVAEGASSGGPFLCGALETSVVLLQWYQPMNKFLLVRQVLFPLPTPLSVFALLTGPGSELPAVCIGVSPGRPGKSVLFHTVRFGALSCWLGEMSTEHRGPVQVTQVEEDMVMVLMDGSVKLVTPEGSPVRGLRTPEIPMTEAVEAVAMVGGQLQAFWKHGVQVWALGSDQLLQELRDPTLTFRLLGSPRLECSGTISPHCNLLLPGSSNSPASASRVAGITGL

As for `CCC1(C(=O)N2CCC3(CC2)C(=O)N([C@H]2C[C@@H](N4CCCCC4)C2)c2cc(-c4cc5ncn(C(C)C)c5c(NC5CC5)n4)ccc23)CCN(C(=O)C2CCN(c3ccc(C4CCC(=O)NC4=O)cn3)CC2)CC1` (mixture of isomers) [Example 255, (3RS)-3-(6-{4-[4-({6-[4-(cyclopropylamino)-3-(propan-2-yl)-3H-imidazo[4,5-c]pyridin-6-yl]-2-oxo-1-[(1S,3S)-3-(piperidin-1-yl)cyclobutyl]-1,2-dihydrospiro[indole-3,4′-piperidin]-1′-yl}carbonyl)-4-ethylpiperidine-1-carbonyl]piperidin-1-yl}pyridin-3-yl)piperidine-2,6-dione], the DC50 (commonly the concentration at which degradation of the target reaches its halfway point) was below 100 nM and the Dmax (in general, the greatest extent of degradation seen) is above 85%.
The corresponding values for `CC(C)n1cnc2cc(-c3ccc4c(c3)N([C@H]3C[C@@H](N5C6COCC5C6)C3)C(=O)C43CCN(C(=O)C4(C)CCN(C(=O)C5CCN(c6ccc(C7CCC(=O)NC7=O)cc6)CC5)CC4)CC3)nc(NC3CC3)c21` (mixture of isomers) [Example 195, (3RS)-3-(4-{4-[4-({6-[4-(cyclopropylamino)-3-(propan-2-yl)-3H-imidazo[4,5-c]pyridin-6-yl]-2-oxo-1-[(1S,3S)-3-{3-oxa-6-Azabicyclo[3.1.1]heptan-6-yl}cyclobutyl]-1,2-dihydrospiro[indole-3,4′-piperidin]-1′-yl}carbonyl)-4-methylpiperidine-1-carbonyl]piperidin-1-yl}phenyl)piperidine-2,6-dione] are 500 to 1000 nM and 50 to 70%.
The matching figures for `CC(C)n1cnc2cc(-c3ccc4c(c3)N([C@H]3C[C@@H](N5CCCCC5)C3)C(=O)C43CCN(C(=O)[C@@H]4CCN(C(=O)[C@H]5CC[C@H](Oc6ccc(C7CCC(=O)NC7=O)cn6)CC5)C4)CC3)nc(NC3CC3)c21` (mixture of isomers) [Example 16, (3RS)-3-(6-{[(1R,4R)-4-[(3R)-3-({6-[4-(cyclopropylamino)-3-(propan-2-yl)-3H-imidazo[4,5-c]pyridin-6-yl]-2-oxo-1-[(1S,3S)-3-(piperidin-1-yl)cyclobutyl]-1,2-dihydrospiro[indole-3,4′-piperidin]-1′-yl}carbonyl)pyrrolidine-1-carbonyl]cyclohexyl]oxy}pyridin-3-yl)piperidine-2,6-dione]: 500 to 1000 nM and 70 to 85%.
The matching figures for `CC(C)n1cnc2cc(-c3ccc4c(c3)N([C@H]3C[C@@H](N5CCCCC5)C3)C(=O)C43CCN(C(=O)[C@@H]4CCN(C(=O)[C@H]5CC[C@H](N(C)c6ccc(C7CCC(=O)NC7=O)cn6)CC5)C4)CC3)nc(NC3CC3)c21` (mixture of isomers) [Example 126, (3RS)-3-(6-{methyl[(1R,4R)-4-[(3R)-3-({6-[4-(cyclopropylamino)-3-(propan-2-yl)-3H-imidazo[4,5-c]pyridin-6-yl]-2-oxo-1-[(1S,3S)-3-(piperidin-1-yl)cyclobutyl]-1,2-dihydrospiro[indole-3,4′-piperidin]-1′-yl}carbonyl)pyrrolidine-1-carbonyl]cyclohexyl]amino}pyridin-3-yl)piperidine-2,6-dione]: below 100 nM and above 85%.
`CC(C)n1cnc2cc(-c3ccc4c(c3)N([C@H]3C[C@@H](N5CCCCC5)C3)C(=O)C43CCN(C(=O)[C@@H]4CCC[C@H](NC(=O)CC5CCN(c6ccc(C7CCC(=O)NC7=O)cn6)CC5)C4)CC3)nc(NC3CC3)c21` (mixture of isomers) [Example 292, N-[(1S,3R)-3-({6-[4-(cyclopropylamino)-3-(propan-2-yl)-3H-imidazo[4,5-c]pyridin-6-yl]-2-oxo-1-[(1s,3s)-3-(piperidin-1-yl)cyclobutyl]-1,2-dihydrospiro[indole-3,4′-piperidin]-1′-yl}carbonyl)cyclohexyl]-2-(1-{5-[(3RS)-2,6-dioxopiperidin-3-yl]pyridin-2-yl}piperidin-4-yl)acetamide]: the half-maximal degradation concentration (DC50) was in the range of 100 to 500 nM and the greatest degradation seen (Dmax) lay in the range of 70 to 85%.
The corresponding values for `CC(C)n1cnc2cc(-c3ccc4c(c3)N([C@H]3C[C@@H](N5CCCCC5)C3)C(=O)C43CCN(C(=O)[C@H]4CC[C@H](C(=O)N5CCC(N(C)c6ccc(C7CCC(=O)NC7=O)cn6)CC5)CC4)CC3)nc(Nc3ccccc3F)c21` (mixture of isomers) [Example 138, (3RS)-3-{6-[methyl({1-[(1R,4R)-4-[(6-{4-[(2-fluorophenyl)amino]-3-(propan-2-yl)-3H-imidazo[4,5-c]pyridin-6-yl}-2-oxo-1-[(1S,3S)-3-(piperidin-1-yl)cyclobutyl]-1,2-dihydrospiro[indole-3,4′-piperidin]-1′-yl)carbonyl]cyclohexanecarbonyl]piperidin-4-yl})amino]pyridin-3-yl}piperidine-2,6-dione] are below 100 nM and above 85%.
The matching figures for `CC(C)n1cnc2cc(-c3ccc4c(c3)N([C@H]3C[C@@H](N5CCCCC5)C3)C(=O)C43CCN(C(=O)c4ccc(C(=O)N5CCN(c6ccc7c(c6)C(=O)N(C6CCC(=O)NC6=O)C7=O)CC5)cc4)CC3)nc(Nc3ccccc3F)c21` (mixture of isomers) [Example 41, 2-[(3RS)-2,6-dioxopiperidin-3-yl]-5-(4-{4-[(6-{4-[(2-fluorophenyl)amino]-3-(propan-2-yl)-3H-imidazo[4,5-c]pyridin-6-yl}-2-oxo-1-[(1S,3S)-3-(piperidin-1-yl)cyclobutyl]-1,2-dihydrospiro[indole-3,4′-piperidin]-1′-yl)carbonyl]benzoyl}piperazin-1-yl)-2,3-dihydro-1H-isoindole-1,3-dione]: 100 to 500 nM and above 85%.
Consider `CC(C)n1cnc2cc(-c3ccc4c(c3)N([C@H]3C[C@@H](N5CCCCC5)C3)C(=O)C43CCN(C(=O)C4(C)CCN(C(=O)C5C6CCC5CN(c5ccc(N7CCC(=O)NC7=O)cn5)C6)CC4)CC3)nc(NC3CC3)c21` (some centres unmarked) [Example 155], for which the DC50 is below 100 nM and the greatest degradation seen (Dmax) was 70 to 85%.
As to `CC(C)n1cnc2cc(-c3ccc4c(c3)N([C@H]3C[C@@H](N5CCCCC5)C3)C(=O)C43CCN(C(=O)C4CCN(C(=O)C5CCN(c6ccc(C7CCC(=O)NC7=O)cn6)CC5)C5(CC5)C4)CC3)nc(NC3CC3)c21` (mixture of isomers) [Example 269, (3RS)-3-(6-{4-[7-({6-[4-(cyclopropylamino)-3-(propan-2-yl)-3H-imidazo[4,5-c]pyridin-6-yl]-2-oxo-1-[(1S,3S)-3-(piperidin-1-yl)cyclobutyl]-1,2-dihydrospiro[indole-3,4′-piperidin]-1′-yl}carbonyl)-4-azaspiro[2.5]Octane-4-carbonyl]piperidin-1-yl}pyridin-3-yl)piperidine-2,6-dione], the DC50 was below 100 nM and the greatest degradation seen (Dmax) is 70 to 85%.
On to `CC(C)n1cnc2cc(-c3ccc4c(c3)N([C@H]3C[C@@H](N5CCCCC5)C3)C(=O)C43CCN(C(=O)[C@]4(C)CCN(C(=O)C5CCN(c6ccc(C7CCC(=O)NC7=O)c(F)c6)CC5)C4)CC3)nc(NC3CC3)c21` (mixture of isomers) [Example 185, (3RS)-3-(4-{4-[(3R)-3-({6-[4-(cyclopropylamino)-3-(propan-2-yl)-3H-imidazo[4,5-c]pyridin-6-yl]-2-oxo-1-[(1S,3S)-3-(piperidin-1-yl)cyclobutyl]-1,2-dihydrospiro[indole-3,4′-piperidin]-1′-yl}carbonyl)-3-methylpyrrolidine-1-carbonyl]piperidin-1-yl}-2-fluorophenyl)piperidine-2,6-dione], for which the 50% degradation concentration (DC50) is 100 to 500 nM and the Dmax was 70 to 85%.
The matching figures for `CC(C)n1cnc2cc(-c3ccc4c(c3)N([C@H]3C[C@@H](N5CCCCC5)C3)C(=O)C43CCN(C(=O)[C@@H]4CCN(C(=O)[C@H]5CC[C@H](Oc6ccc(C7CCC(=O)NC7=O)cc6)CC5)C4)CC3)nc(Nc3ccncc3F)c21` (stereo partly drawn) [Example 15, 3-(4-{[(1R,4R)-4-[(3R)-3-[(6-{4-[(3-fluoropyridin-4-yl)amino]-3-(propan-2-yl)-3H-imidazo[4,5-c]pyridin-6-yl}-2-oxo-1-[(1S,3S)-3-(piperidin-1-yl)cyclobutyl]-1,2-dihydrospiro[indole-3,4′-piperidin]-1′-yl)carbonyl]pyrrolidine-1-carbonyl]cyclohexyl]oxy}phenyl)piperidine-2,6-dione]: below 100 nM and above 85%.
The corresponding values for `CC(C)n1cnc2cc(-c3ccc4c(c3)N([C@H]3C[C@@H](N5CCCCC5)C3)C(=O)C43CCN(C(=O)C4CCN(C(=O)C5CCN(c6ccc(N7CCC(=O)NC7=O)cc6)CC5)CC4)CC3)nc(Nc3ccncc3F)c21` [Example 71, 1-[4-(4-{4-[(6-{4-[(3-Fluoropyridin-4-yl)amino]-3-(propan-2-yl)-3H-imidazo[4,5-c]pyridin-6-yl}-2-oxo-1-[(1S,3S)-3-(piperidin-1-yl)cyclobutyl]-1,2-dihydrospiro[indole-3,4′-piperidin]-1′-yl)carbonyl]piperidine-1-carbonyl}piperidin-1-yl)phenyl]-1,3-diazinane-2,4-dione] are below 100 nM and 70 to 85%.
The corresponding values for `Cc1cc(F)c(Nc2nc(-c3ccc4c(c3)N([C@H]3C[C@@H](N5CCCCC5)C3)C(=O)C43CCN(C(=O)C4=CCN(C(=O)C5CCN(c6ccc7c(c6)C(=O)N(C6CCC(=O)NC6=O)C7=O)CC5)CC4)CC3)cc3ncn(C(C)C)c23)cc1C(=O)NC(C)C` (mixture of isomers) [Example 37, 5-[(6-{1′-[1-(1-{2-[(3RS)-2,6-dioxopiperidin-3-yl]-1,3-dioxo-2,3-dihydro-1H-isoindol-5-yl}piperidine-4-carbonyl)-1,2,3,6-tetrahydropyridine-4-carbonyl]-2-oxo-1-[(1S,3S)-3-(piperidin-1-yl)cyclobutyl]-1,2-dihydrospiro[indole-3,4′-piperidin]-6-yl}-3-(propan-2-yl)-3H-imidazo[4,5-c]pyridin-4-yl)amino]-4-fluoro-2-methyl-N-(propan-2-yl)benzamide] are 100 to 500 nM and 50 to 70%.

The values above are taken from patent US12091426B2, “Bifunctional degraders of hematopoietic progenitor kinase and therapeutic uses thereof” (Nurix Therapeutics, Inc., priority 2021, dated 2024).
